Values after ≈ are worked out from the molar mass of the structure shown.
Assays:
[1] = Selectivity index, ratio of IC50 for human KB cells to IC50 for Plasmodium falciparum D6; assay type: toxicity, cell-based; details: read-out: Ratio IC50
Plasmodium falciparum [2] = assay: microbe, parasite or virus in culture; assay type: functional, organism-based; details: D6
Description: Antiplasmodial activity against Plasmodium falciparum D6

[3] = Selectivity index, ratio of IC50 for human KB cells to IC50 for Plasmodium falciparum W2; assay type: toxicity, cell-based; details: read-out: Ratio IC50
KB = assay: cells; assay type: ADME, cell-based; details: Homo sapiens
Description: Cytotoxicity against human KB cells

Plasmodium falciparum [4] = assay: microbe, parasite or virus in culture; assay type: functional, organism-based; details: W2
Description: Antiplasmodial activity against Plasmodium falciparum W2

Row | IC50 (Plasmodium falciparum [2]) | IC50 (KB) | IC50 (Plasmodium falciparum [4]) | Structure (SMILES) | selectivity ratio [1] | selectivity ratio [3]
1 | 0.0625 µg/mL (≈ 0.21 µM) | 18.2 µg/mL (≈ 61.2 µM) | 0.0195 µg/mL (≈ 0.0655 µM) | CC1=C[C@@H]2C[C@H](C)[C@H]3CC[C@](C)(C#N)[C@H]4CC[C@@H]([C@@H]2[C@H]34)[C@@H]1C | 290 | 930
2 | 0.0749 µg/mL (≈ 0.22 µM) | 2 µg/mL (≈ 5.87 µM) | 0.0561 µg/mL (≈ 0.165 µM) | C[C@@H]1C[C@@H]2C[C@H](C)[C@H]3CC[C@](C)(N=C=O)[C@H]4CC[C@@H]([C@@H]2[C@H]34)[C@]1(C)C#N | 27 | 36
3 | 0.0451 µg/mL (≈ 0.126 µM) | 1.6 µg/mL (≈ 4.49 µM) | 0.0285 µg/mL (≈ 0.0799 µM) | C[C@@H]1C[C@@H]2C[C@H](C)[C@H]3CC[C@](C)(N=C=S)[C@H]4CC[C@@H]([C@@H]2[C@H]34)[C@]1(C)C#N | 35 | 56
4 | 0.0741 µg/mL (≈ 0.249 µM) | 14.5 µg/mL (≈ 48.7 µM) | 0.0238 µg/mL (≈ 0.08 µM) | C[C@H]1C[C@H]2CC(C)(C)C=C3CC[C@H]4[C@@H]([C@@H]1CC[C@]4(C)C#N)[C@@H]32 | 200 | 610
5 | > 10 µg/mL | > 20 µg/mL | > 10 µg/mL | C=C(C)C1[C@@H]2C(C)CC[C@@H]2[C@@]2(C)CC[C@@H]12 (stereo partly drawn) |  | 
6 | > 10 µg/mL | > 20 µg/mL | > 10 µg/mL | C=C(C)C1CC[C@@H]2[C@H]3CCC(C)[C@H]3[C@H]12 (stereo partly drawn) |  | 
7 | 0.52 µg/mL (≈ 1.75 µM) | > 20 µg/mL | 0.242 µg/mL (≈ 0.813 µM) | C=C(C)C[C@@H]1C[C@H](C)[C@H]2CC[C@](C)(C#N)[C@H]3CCC(=C)[C@@H]1[C@H]23 | > 38.5 | > 82.6
8 |  |  |  | OC(c1cc(C(F)(F)F)nc2c(C(F)(F)F)cccc12)C1CCCCN1 (stereo not drawn) [MEFLOQUINE] | 490 | 970
9 | 0.302 µg/mL (≈ 1.02 µM) | > 20 µg/mL | 0.133 µg/mL (≈ 0.447 µM) | CC(C)=C[C@@H]1C[C@H](C)[C@H]2CC[C@](C)(C#N)[C@H]3CC=C(C)[C@@H]1[C@H]23 | > 66.2 | > 150
10 | 0.0585 µg/mL (≈ 0.197 µM) | 15.2 µg/mL (≈ 51.1 µM) | 0.0256 µg/mL (≈ 0.0861 µM) | CC(C)=C[C@H]1C[C@H](C)[C@H]2CC[C@](C)(C#N)[C@H]3CCC(C)=C1[C@H]23 | 260 | 590
11 | 0.09 µg/mL (≈ 0.303 µM) | 19.1 µg/mL (≈ 64.2 µM) | 0.0297 µg/mL (≈ 0.0998 µM) | C=C(C)/C=C/[C@]12C[C@H](C)[C@H]3CC[C@](C)(C#N)[C@@H](CC[C@H]1C)[C@@H]32 | 210 | 640
12 | > 10 µg/mL | > 20 µg/mL | 8.46 µg/mL (≈ 41.4 µM) | C=C(C)[C@@H]1C=C2C(C)CC[C@@H]2C(C)CC1 (stereo partly drawn) |  | > 2.3
13 | 0.47 µg/mL (≈ 1.32 µM) | > 20 µg/mL | 0.109 µg/mL (≈ 0.306 µM) | C=C1CC[C@H]2[C@H]3[C@H](CC[C@]2(C)C#N)[C@@H](C)C[C@@H](CC(C)(C)N=C=S)[C@H]13 | > 42.6 | > 183
14 | 0.0849 µg/mL (≈ 0.285 µM) | > 20 µg/mL | 0.0284 µg/mL (≈ 0.0955 µM) | C[C@H]1C[C@H]2CC(C)(C)CC3=CC[C@H]4[C@@H]([C@@H]1CC[C@]4(C)C#N)[C@@H]32 | > 240 | > 700
15 | 0.797 µg/mL (≈ 2.31 µM) | 5.3 µg/mL (≈ 15.3 µM) | 0.423 µg/mL (≈ 1.22 µM) | C=C1CC[C@H]2[C@H]3[C@H](CC[C@]2(C)N=C=S)[C@@H](C)C[C@H](C=C(C)C)[C@]13O | 6.6 | 12
16 | > 10 µg/mL | > 20 µg/mL | > 10 µg/mL | CC(C)=CCC[C@@H](C)[C@H]1CC[C@](C)(N=C=S)[C@H]2CCC(C)=C[C@H]12 |  | 

Row | Structure (SMILES) | IC50 (Plasmodium falciparum [2]) | IC50 (KB) | IC50 (Plasmodium falciparum [4]) | selectivity ratio [1] | selectivity ratio [3]
17 | O=Cc1ccc(O)cc1 [4-HYDROXYBENZALDEHYDE] | 7.33 µg/mL (≈ 60 µM) | > 20 µg/mL | 5.56 µg/mL (≈ 45.5 µM) | > 2.7 | > 3.6
18 | C[C@@H]1C[C@@H]2C[C@H](C)[C@H]3CC[C@](C)(C#N)[C@H]4CC[C@@H]([C@@H]2[C@H]34)[C@]1(C)N=C=O | 0.0032 µg/mL (≈ 0.0094 µM) | 4.3 µg/mL (≈ 12.6 µM) | 0.0025 µg/mL (≈ 0.00734 µM) | 1340 | 1710
19 | [C-]#[N+][C@]1(C)[C@H](C)C[C@@H]2C[C@H](C)[C@H]3CC[C@](C)([N+]#[C-])[C@H]4CC[C@H]1[C@@H]2[C@H]34 [DIISOCYANOADOCIANE] |  | 4.7 µg/mL (≈ 14.5 µM) | 0.0043 µg/mL (≈ 0.0133 µM) | 1000 | 1100
20 | C=C[C@H]1CN2CC[C@H]1C[C@H]2[C@H](O)c1ccnc2ccc(OC)cc12 [QUININE] |  | > 20 µg/mL | 0.0546 µg/mL (≈ 0.168 µM) | > 1800 | > 370
21 | C=C1CC[C@H]2[C@H]3[C@H](CC[C@]2(C)C#N)[C@@H](C)C[C@H](C=C(C)C)[C@H]13 | 0.0141 µg/mL (≈ 0.0474 µM) | 3.2 µg/mL (≈ 10.8 µM) | 0.0093 µg/mL (≈ 0.0313 µM) | 230 | 340
22 | COc1ccc(CO)cc1 | > 10 µg/mL | > 20 µg/mL | > 10 µg/mL |  | 
23 | C[C@@H]1CC[C@H]2[C@@H](C)C(=O)O[C@@H]3O[C@@]4(C)CC[C@@H]1[C@]32OO4 [ARTEMISININ] |  | > 20 µg/mL | 0.0021 µg/mL (≈ 0.00744 µM) |  | 

— ChEMBL document CHEMBL1158252, “Antimalarial activity: the search for marine-derived natural products with selective antimalarial activity” (J Nat Prod, 1996)
